From US9814720B2, “Compositions and methods of inhibiting IL-17 expression of neutrophils” (priority 2014, dated 2017) come the findings set out here.

The subject of assay [1] is p-STAT3. As to the kind of experiment: Western blot of total cell lysate of IL-6/23-stimulated human neutrophils. Format: cell-based. Particulars: IL-6/23 1 h, FIG. 5A. The method, then: (§1) Neutrophils were isolated from peripheral blood of healthy donors. Peripheral blood was incubated in 3% Dextran, and neutrophils isolated by Ficoll gradient centrifugation (Fisher Scientific), with neutrophil purity determined by staining with Wright-Giemsa.
(§2) Murine or human neutrophils were suspended at a density of 10^6 cells/ml and incubated with […] of recombinant mouse or human IL-6 and 2 μg/ml IL-23 in RPMI, and the cells were maintained for 1-3 h at 37° C. in 5% CO2. Various inhibitors were used for assessing STAT3 activation. For STAT3, neutrophils were treated with either the STAT3-SH2 inhibitor, Stattic (20 μM) obtained from Tocris, or the JAK-1, 2 inhibitor, INC424, (aka Ruxolitinib; 20 μM (Selleck BioChem)). For the determination of RORγt-dependent signaling, SR1001 (20 μM; Sigma) was used, which inhibits RORγt binding to the IL-17 promoter site. All inhibitors were added to neutrophils 2 h prior to recombinant IL-6 and IL-23 stimulation.
Neutrophils collected from primed or naïve C57BL/6 mice or unstimulated murine or human neutrophils were incubated with recombinant IL-6 and IL-23 for 60 min. After this time, cells were washed in PBS and lysed in ice-cold 1× lysis buffer (Cell Signaling Technology, Beverly, Mass.). Total protein was quantified using the BCA method, denatured with 2× Laemmli buffer (Sigma) and heated to 95° C. for 5 minutes. Nuclear extracts of the cells were prepared with the Pierce nuclear extract kit per the manufacturer's directions (Pierce). Ten μg of total protein was analyzed on a 12% SDS polyacrylamide gel, and transferred to nitrocellulose. Blots were probed with the following primary antibodies: Total STAT3 (R&D), p-STAT3 (R&D), RORγt (eBioscience), TATA box binding protein (TBP (Abcam)), and β-actin (Cell Signaling Technology). HRP-conjugated secondary antibodies were used (Santa Cruz Biotechnologies), and western blots developed with Supersignal West Femto Maximum Sensitivity Substrate (Pierce).

The subject of assay [2] is IL-17A. As to the kind of experiment: IL-17A protein and Il17a gene expression in IL-6/23-stimulated human neutrophils. The format is cell-based. The method, then: as §1
IL-17A protein production was quantified by 2-site ELISA, according to the manufacturer's directions (R&D Biosciences).
as §2
Neutrophil and corneal cell RNA was extracted using the RNeasy mini kit according to the manufacturer's directions (Qiagen, Valencia, Calif.). […]
The SYBR green system (Applied Biosystems, Carlsbad, Calif.) was utilized for quantitative PCR (qPCR) using ABI Biosystems. […]

The test system of assay [3] is A. fumigatus hyphae. The experiment in a line: In vitro fungal killing assay (hyphal coincubation) with murine neutrophils. Format: cell-based, Aspergillus fumigatus. Particulars: IL-6/23-stimulated, inhibitor 20 μM, FIG. 6D. The source says:
Aspergillus strains—For cornea infections and in vitro fungal killing assays, an RFP expressing strain of A. fumigatus (Af-dsRed) was used. This strain is gpdA promoter driven to constitutively express monomeric dsRed. For subcutaneous “priming” injections, heat-killed, swollen conidia Aspergillus fumigatus strain Af-BP was used. For the Aspergillus hyphal extract used in ROS assay, A. fumigatus strain Af-BP hyphae were pulverized in liquid nitrogen, filtered through a 30 μm pre-separation filter (Miltenyi Biotec) and protein measured by the BCA method (Pierce). Aspergillus hyphal extracts (AspHE) were stored at −20° C. and used at a final concentration of 1 mg/ml.
A hyphal coincubation assay was used to study the ability of murine and human neutrophils to inhibit A. fumigatus hyphal growth as described. Briefly, 12,500 A. fumigatus dsRed expressing conidia (strain Af-dsRed) per 200 μl Sabouraud dextrose media were added to wells of black-walled 96 well plates with an optically clear bottom (CoStar 3720). After 6 h, the conidia had germinated and the hyphae became adherent to the wells, at which time the medium was removed.
Murine and human neutrophils were incubated with p-STAT3 (20 μM Stattic or 20 μM INC424) or RORγt inhibitors (20 μM SR1001) for 2 h. Then the cells were stimulated with […] of rIL-6 and 2 μg/ml of rIL-23 for 3 h, washed, and 2×10^5 bone marrow-derived murine neutrophils or 10^5 human peripheral blood neutrophils, with or without recombinant IL-17A, were added to each well with growing hyphae. RPMI media was used as positive control (unimpaired growth), and PBS was used as a negative control (no growth (data not shown)). After 16 h the wells were washed with PBS and the dsRed fungal mass was quantified in a 96-well fluorometer at 550/600 nm excitation/emission filter (Synergy HT, Biotek).

Regarding `O=[N+]([O-])c1ccc2c(c1)S(=O)(=O)C=C2` [Stattic], in assay [1], the “RORγt expression (western blot)” value is “not altered” and the “total STAT3 expression (western blot)” value is given as “not altered”. The “p-STAT3 (western blot)” value in assay [1] (inhibitor 20 μM) is “inhibited”. For the same compound, in assay [2] (FIG. 5D), the IL-17A protein result is on record as “ablated”. In assay [2] (FIG. 5E), the Il17a gene expression entry is on record as “ablated”. Moreover, in assay [3] (plus rIL-17A), the hyphal killing activity entry was “enhanced hyphal killing activity was detected”. Moreover, the “hyphal growth (fluorescent fungal mass)” value in assay [3] (without rIL-17A) was “did not further impede hyphal growth”.
